Measured values reported in patent US12442035B2, “Compositions and methods for detecting antibiotic responsive mRNA expression signatures and uses thereof” (THE BROAD INSTITUTE, INC., priority 2018, dated 2025).

Legend:
[1] = tested on: K. pneumoniae clinical isolates; experiment: Standard broth microdilution MIC; type: cell-based, Klebsiella pneumoniae
Source text: (§3) All strains in this study (Table 7) were obtained from clinical or reference microbiological laboratories, including both local hospitals and MDRO strain collections from the Centers for Disease Control's Antibiotic Resistance Isolate Bank (see e.g., World Wide Web at (www).cdc.gov/ARIsolateBank/) and the New York State Department of Health.

[2] = tested on: E. coli clinical isolates; experiment: Standard broth microdilution MIC; type: cell-based, Escherichia coli
Source text: as §3

[3] = tested on: A. baumannii clinical isolates; experiment: Standard broth microdilution MIC; type: cell-based, Acinetobacter baumannii
Source text: as §3

[4] = tested on: K. pneumoniae clinical isolates; experiment: RNA-Seq transcriptional response to antibiotic exposure, GO term enrichment; type: cell-based, Klebsiella pneumoniae; conditions: CLSI breakpoint concentration, 0, 10, 30, 60 minutes
Source text: (§1) Fisher's combined probability test was used to select only those genes whose expression after antibiotic treatment was statistically distinguishable from its expression at any timepoint in the untreated samples. Gene ontology (GO) terms were assigned using blast2GO (version 1.4.4), with hypergeometric testing for enrichment. For each pathogen-antibiotic pair, the fold-change threshold in DESeq2 used to test statistical significance was increased to select 60-100 antibiotic-responsive transcripts with maximal stringency, a number readily accommodated by the NanoString® assay format. […] As with responsive genes, the fold-change threshold was varied in order to select the top 10-20 control transcripts. […] See Supplemental Methods sections below for further details.
(§2) After antibiotic treatment as described in the above Materials and Methods section, cells were pelleted, resuspended in 0.5 mL Trizol reagent (ThermoFisher Scientific), transferred to 1.5 mL screw-cap tubes containing 0.25 mL of 0.1 mm diameter Zirconia/Silica beads (BioSpec Products), and lysed mechanically via bead-beating for 3-5 one-minute cycles on a Minibeadbeater-16 (BioSpec) or one 90-second cycle at 10 m/sec on a FastPrep (MP Bio). After addition of 0.1 mL chloroform, each sample tube was mixed thoroughly by inversion, incubated for 3 minutes at room temperature, and centrifuged at 12,000×g for 15 minutes at 4° C. […]

[5] = tested on: E. coli clinical isolates; experiment: as above; type: cell-based, Escherichia coli; conditions: CLSI breakpoint concentration, 0, 10, 30, 60 minutes
[6] = tested on: A. baumannii clinical isolates; experiment: as above; type: cell-based, Acinetobacter baumannii; conditions: CLSI breakpoint concentration, 0, 10, 30, 60 minutes
Source text: as §1, §2

## gentamicin
[1]; KpGent strain AR0042
  gent MIC: 32 mg/L
[1]; KpGent strain AR0043
  gent MIC: 1 mg/L
[1]; KpGent strain AR0076
  gent MIC: 32 mg/L
[1]; KpGent strain AR0080
  gent MIC: 2 mg/L
[1]; KpGent strain ATCC 700721
  gent MIC: >32 mg/L
[1]; KpGent strain BAC0800007138
  gent MIC: 0.5 mg/L
[1]; KpGent strain BIDMC_2A
  gent MIC: 2 mg/L
[1]; KpGent strain BIDMC_34
  gent MIC: 32 mg/L
[1]; KpGent strain BIT-10
  gent MIC: 4 mg/L
[1]; KpGent strain BWH_15
  gent MIC: 4 mg/L
[1]; KpGent strain IDR1600031102-01-00
  gent MIC: >32 mg/L
[1]; KpGent strain IDR1600039511-01-00
  gent MIC: 0.5 mg/L
[1]; KpGent strain MGH_30
  gent MIC: 1 mg/L
[1]; KpGent strain MGH_35
  gent MIC: >16 mg/L
[1]; KpGent strain MGH_63
  gent MIC: >16 mg/L
[1]; KpGent strain RB012
  gent MIC: 32 mg/L
[1]; KpGent strain RB040
  gent MIC: 0.5 mg/L
[1]; KpGent strain RB042
  gent MIC: 2 mg/L
[1]; KpGent strain RB121
  gent MIC: 1 mg/L
[1]; KpGent strain RB122
  gent MIC: 128 mg/L
[1]; KpGent strain UCI_7
  gent MIC: 0.5 mg/L
[1]; KpGent strain UCI_13
  gent MIC: 0.5 mg/L
[1]; KpGent strain UCI_37
  gent MIC: 16 mg/L
[1]; KpGent strain UCI_63
  gent MIC: 4 mg/L
[1]; KpGent strain UCI_67
  gent MIC: 8 mg/L
[2]; E. coli strain AR0055
  gent MIC: 64 mg/L
[2]; E. coli strain AR0061
  gent MIC: 32 mg/L
[2]; E. coli strain AR0081
  gent MIC: 0.5 mg/L
[2]; E. coli strain AR0084
  gent MIC: 0.5 mg/L
[2]; E. coli strain AR0085
  gent MIC: 2 mg/L
[2]; E. coli strain BAA2469
  gent MIC: 64 mg/L
[2]; E. coli strain BAC0800005647
  gent MIC: 1 mg/L
[2]; E. coli strain IDR1300027657
  gent MIC: 64 mg/L
[2]; E. coli strain IDR1300034680
  gent MIC: 1 mg/L
[2]; E. coli strain IDR1600047120
  gent MIC: 64 mg/L
[2]; E. coli strain MGH_57
  gent MIC: 0.5 mg/L
[2]; E. coli strain RB001 (deriv_S)
  gent MIC: 1 mg/L
[2]; E. coli strain RB051 (deriv_R)
  gent MIC: 256 mg/L
[2]; E. coli strain RB057 (deriv_R)
  gent MIC: 256 mg/L
[2]; E. coli strain RB075 (deriv_S)
  gent MIC: 0.5 mg/L
[2]; E. coli strain RB765
  gent MIC: 64 mg/L
[2]; E. coli, printed on the continuation line of strain RB075, above RB076, strain unclear
  gent MIC: 1 mg/L
[3]; A. baumannii strain AR0033
  gent MIC: 32 mg/L
[3]; A. baumannii strain AR0035
  gent MIC: 16 mg/L
[3]; A. baumannii strain AR0037
  gent MIC: >32 mg/L
[3]; A. baumannii strain AR0045
  gent MIC: >32 mg/L
[3]; A. baumannii strain AR0052
  gent MIC: 32 mg/L
[3]; A. baumannii strain AR0056
  gent MIC: >32 mg/L
[3]; A. baumannii strain AR0063
  gent MIC: 4 mg/L
[3]; A. baumannii strain AR0070
  gent MIC: >32 mg/L
[3]; A. baumannii strain AR0078
  gent MIC: >32 mg/L
[3]; A. baumannii strain AR0101
  gent MIC: 8 mg/L
[3]; A. baumannii strain AR0102
  gent MIC: >32 mg/L
[3]; A. baumannii strain ATCC 17978
  gent MIC: ≤0.5 mg/L
[3]; A. baumannii strain RB197 (deriv_S)
  gent MIC: ≤0.5 mg/L
[3]; A. baumannii strain RB198
  gent MIC: 32 mg/L
[3]; A. baumannii strain RB200 (deriv_R)
  gent MIC: >32 mg/L
[3]; A. baumannii strain RB201
  gent MIC: 1 mg/L
[3]; A. baumannii strain RB202
  gent MIC: >32 mg/L
[3]; A. baumannii strain RB203
  gent MIC: 4 mg/L
[3]; A. baumannii strain RB204 (deriv_R)
  gent MIC: >32 mg/L
[3]; A. baumannii strain RB205 (deriv_S)
  gent MIC: 2 mg/L
[3]; A. baumannii strain RB206
  gent MIC: >32 mg/L
[4]
  Gene ontology enrichment of antibiotic-responsive transcripts: induced the unfolded protein response and quinone binding
[5]
  Gene ontology enrichment of antibiotic-responsive transcripts: induced the unfolded protein response and quinone binding
[6]
  Gene ontology enrichment of antibiotic-responsive transcripts: induced the unfolded protein response and quinone binding
